Measurements from paper PMC9830933 (European Journal of Medicinal Chemistry, 2023).

Tests used:
[1] = system: MHV-A59; assay: In vitro anti-MHV-A59 activity assay in L929 cells; assay type: cell-based, murine coronavirus mouse hepatitis virus A-59; conditions: for potency relative to GS-441524 (MHV-A59 EC50), fold more potent: vs GS-441524 EC50 = 10.01 μM; for effect on cellular replication of MHV-A59 (in words): up to 200 μM
[2] = Aqueous solubility; assay type: physicochemical
[3] = system: MHV-A59; assay: Mouse MHV efficacy study; assay type: in vivo, BALB/c mice; conditions: for viral titers (MHV-A59 RNA copies) in the liver (in words): mouse, in vivo
[4] = system: FCoV; conditions: intraperitoneal injection, FCoV-afflicted cats; cited from earlier work
[5] = ATV041 10, 50, 200 mg/kg oral QD, 3 dpi

CC(C(=O)OC[C@H]1O[C@@](C#N)(c2ccc3c(N)ncnn23)[C@H](O)[C@@H]1O)c1cccc(Oc2ccccc2)c1 (stereo partly drawn) [ATV038, ((2R,3S,4R,5R)-5-(4-aminopyrrolo[2,1-f][1,2,4]triazin-7-yl)-5-cyano-3,4-dihydroxytetrahydrofuran-2-yl)methyl 2-(3-phenoxyphenyl)propanoate]
potency relative to GS-441524 (MHV-A59 EC50), fold more potent [1]: about 8 fold
aqueous solubility (in words) [2]: slightly better solubility

COc1ccc2cc([C@H](C)C(=O)OC[C@H]3O[C@@](C#N)(c4ccc5c(N)ncnn45)[C@H](O)[C@@H]3O)ccc2c1 [ATV039, ((2R,3S,4R,5R)-5-(4-aminopyrrolo[2,1-f][1,2,4]triazin-7-yl)-5-cyano-3,4-dihydroxytetrahydrofuran-2-yl)methyl (S)-2-(6-methoxynaphthalen-2-yl)propanoate]
aqueous solubility (in words) [2]: slightly better solubility

CC(C(=O)OC[C@H]1O[C@@](C#N)(c2ccc3c(N)ncnn23)[C@H](O)[C@@H]1O)c1cccc(C(=O)c2ccccc2)c1 (stereo partly drawn) [ATV040, ((2R,3S,4R,5R)-5-(4-aminopyrrolo[2,1-f][1,2,4]triazin-7-yl)-5-cyano-3,4-dihydroxytetrahydrofuran-2-yl)methyl 2-(3-benzoylphenyl)propanoate]
aqueous solubility (in words) [2]: significantly improved the solubility

CC(C)Cc1ccc(C(C)C(=O)OC[C@H]2O[C@@](C#N)(c3ccc4c(N)ncnn34)[C@H](O)[C@@H]2O)cc1 (stereo partly drawn) [ATV041, ((2R,3S,4R,5R)-5-(4-aminopyrrolo[2,1-f][1,2,4]triazin-7-yl)-5-cyano-3,4-dihydroxytetrahydrofuran-2-yl)methyl 2-(4-isobutylphenyl)propanoate]
survival rate ([3]; 10 mg/kg oral QD, 23-day observation): 100%
pro-inflammatory factors in the lungs (in words) ([3]; 200 mg/kg oral QD, 3 dpi): considerably reduced to a level similar to the mock-infected mice
liver histopathology (H&E) (in words) ([3]; 3 dpi): obvious remission effects
lung histopathology (H&E) (in words) ([3]; 3 dpi): alleviated symptoms
dose dependence of inhibition of viral replication in the liver (in words) [3, 5]: dose-dependently inhibited
dose dependence of inhibition of viral replication in the lungs (in words) [3, 5]: dose-dependent inhibition
viral titers (MHV-A59 RNA copies) in the liver (in words) [3]: below the detection limit
plasma ALT and AST (in words) ([3]; serum chemical analysis, 3 dpi): significantly reduced
potency relative to GS-441524 (MHV-A59 EC50), fold more potent [1]: about 8 fold
aqueous solubility (in words) [2]: slightly better solubility

N#C[C@@]1(c2ccc3c(N)ncnn23)O[C@H](COC(=O)Cc2ccccc2Nc2c(Cl)cccc2Cl)[C@@H](O)[C@H]1O [ATV042, ((2R,3S,4R,5R)-5-(4-aminopyrrolo[2,1-f][1,2,4]triazin-7-yl)-5-cyano-3,4-dihydroxytetrahydrofuran-2-yl)methyl 2-(2-((2,6-dichlorophenyl)amino)phenyl)acetate]
aqueous solubility (in words) [2]: hardly soluble

COc1ccc2c(c1)c(CC(=O)OC[C@H]1O[C@@](C#N)(c3ccc4c(N)ncnn34)[C@H](O)[C@@H]1O)c(C)n2C(=O)c1ccc(Cl)cc1 [ATV043, ((2R,3S,4R,5R)-5-(4-aminopyrrolo[2,1-f][1,2,4]triazin-7-yl)-5-cyano-3,4-dihydroxytetrahydrofuran-2-yl)methyl 2-(1-(4-chlorobenzoyl)-5-methoxy-2-methyl-1H-indol-3-yl)acetate]
aqueous solubility (in words) [2]: hardly soluble

N#C[C@@]1(c2ccc3c(N)ncnn23)O[C@H](CO)[C@@H](O)[C@H]1O [GS-441524, 1′-CN-4-aza-7,9-dideazaadenosine C-nucleoside, reference compound]
viral titer / viral replication in the lungs (in words) ([3]; 100 mg/kg GS-441524 (B1) or 200 mg/kg ATV041 (C3), same molar concentration, oral QD, 3 dpi): about one order of magnitude
lung histopathology (H&E) (in words) ([3]; 3 dpi): did not demonstrate protect effects
viral titers (MHV-A59 RNA copies) in the liver (in words) [3]: below the detection limit
cure rate [4]: up to 96%

CC(C)Cc1ccc(C(C)C(=O)O)cc1 (centres unmarked) [Ibuprofen, reference compound]
antiviral effect in lung and liver (in words) ([3]; ibuprofen 70 mg/kg oral QD dosed alone, 3 dpi): did not show an antiviral effect
effect on cellular replication of MHV-A59 (in words) ([1]; Fig. S1): did not affect
effect on cellular replication of MHV-A59 (in words) ([1]; Fig. S1, listed as ibuprofen): did not inhibit
